Results published in US20040005294A1, “IGFBP-3 in the diagnosis and treatment of cancer” (priority 2002, published 2004).

Legend:
NHBE cells [1] = assay: MTT proliferation assay, NHBE cells (deguelin); assay type: cell-based, human; details: 10^−9 M to 10^−7 M
Procedure: (§1) To measure the effects of deguelin on cell proliferation, NHBE, 1799, 1198, 1170-1, and HB56B cells were plated at concentrations of 2×10^3 to 4×10^3 cells/well in 96-well plates. The next day, cells were treated with either 0.1% DMSO as a diluent control or various concentrations of deguelin (final DMSO concentration=0.1%). At the end of the assay time period, cell proliferation was measured by the 3-(4,5-dimethylthiazol-2-yl)-2,5-diphenyltetrazolium bromide (MTT) assay as described (Lee et al., 2002). Six replicate wells were used for each analysis, and data from replicate wells are presented as means with 95% confidence intervals (CIs). For some experiments, the drug concentration required to inhibit cell growth by 50% (IC50) was determined by interpolation from dose-response curves. At least three independent experiments were performed.

[2] = system: 1799, 1198 and 1170-1 cells; assay: Cell cycle analysis by flow cytometry, HBE cell lines; assay type: cell-based, human; details: 10^−8 M or 10^−7 M, 3 days
Procedure: NHBE and 1799 cells were plated at a concentration of 2×10^5 cells/well in six-well plates. The next day, cells were treated with deguelin (various concentrations) or DMSO (0.1%) for 3 days to achieve maximal antiproliferative effects (determined from growth curves). All cells (nonadherent and adherent) were harvested, fixed with 1% paraformaldehyde and 70% ethanol, stained with 50 μg/mL propidium iodide, and subjected to flow cytometric analysis to determine the percentage of cells in specific phases of the cell cycle (G1, S, and G2/M) as described (Sun et al., 1997). Flow cytometric analysis was performed using a Coulter EPICS Profile II flow cytometer (Coulter Corp., Miami, Fla.) equipped with a 488-nm argon laser. Approximately 10 000 events (cells) were evaluated for each sample. Two independent experiments were performed and one is presented.

NHBE cells [3] = assay: Apoptosis by TUNEL and DNA fragmentation, NHBE cells; assay type: cell-based, human
Procedure: NHBE, premalignant (1799 and 1198), and malignant (1170-1) HBE (2×10^6) cells were exposed to various doses of deguelin or to DMSO (0.1%) for 3 days. Apoptosis was assessed by morphology, by a flow cytometry-based, modified terminal deoxynucleotidyl transferase dUTP nick end labeling (TUNEL) assay, and by the detection of fragmented DNA. For morphology, live cells were observed by light microscopy using a ×100 objective. For TUNEL analysis, both adherent and nonadherent cells were harvested and pooled, fixed with 1% paraformaldehyde and 70% ethanol, and processed using the APO-BrdU staining kit (Phoenix Flow Systems, San Diego, Calif.), a modified TUNEL assay, as described (Lee et al., 2002). Cells treated with DMSO were used to gate the control nonapoptotic populations and as a reference for cells treated with deguelin. An internal control (HL-60 cells treated with camptothecin to induce apoptosis) provided in the apoptosis detection kit was also used to ensure that the TUNEL reaction was occurring during the staining procedure. For the detection of fragmented nucleosomal DNA, cells were processed using the TACS apoptotic DNA laddering kit (Trevigen Inc., Gaithersburg, Md.), according to the manufacturer's recommended protocol.

[4] = system: premalignant and malignant HBE cell lines; assay: MTT proliferation assay, premalignant and malignant HBE cell lines; assay type: cell-based; details: Homo sapiens, range tested 10^−9 M to 10^−7 M, read-out: IC50 (growth inhibition)
Procedure: as §1

squamous HBE cells = assay: Immunoblot of pAkt, pGSK-3β, caspase-3 and PARP, squamous HBE cells; assay type: cell-based, human
Procedure: Whole cell lysates from 1×10^6 cells were prepared in lysis buffer as described (Lonardo et al., 2002). Equivalent amounts of protein were resolved by sodium dodecyl sulfate (SDS)-polyacrylamide gels (7.5%-12%) and transferred to a nitrocellulose membrane. After the membrane was blocked in Tris-buffered saline (TBS) containing 0.05% Tween 20 (TBST) and 5% (w/v) nonfat powdered milk, the membrane was incubated with primary antibody at the appropriate dilution in TBS-5% nonfat milk at 4° C. for 16 h. The membrane was then washed multiple times with TBST and incubated with the appropriate horseradish peroxidaseconjugated secondary antibody for 1 h at room temperature. The protein-antibody complexes were detected by enhanced chemilurminescence (ECL kit; Amersham, Arlington Heights, Ill.), according to the manufacturer's recommended protocol.
To determine whether deguelin-induced antiproliferative effects on premalignant HBE cells were mediated through the inhibition of the PI3K/Akt pathway, 2×10^5 1799 cells/well or 1×10 ^6 squamous HBE cells/well in six-well plates were infected with 5×10 ^3 particles/cell of a control virus (Ad5CMV) or with 1×10^3 or 5×10^3 particles/cell of Ad5CMV-MyrAkt-HA, an adenoviral vector that expresses a constitutively active Akt. […] Apoptosis was analyzed using the APO-BrdU staining kit for TUNEL, Western blot analyses for caspase-3, and the cleavage of PARP.

PI3K in 1799 cells = assay: PI3K assay of immunoprecipitates; assay type: cell-based, human; details: 10^−7 M, IGF-I activated
Procedure: Approximately 5×10^6 1799 cells were treated with 10^−7 M deguelin or 0.1% DMSO for different time periods (0-24 h) in the absence of any additional stimulatory growth factors. PI3K in these cells was then activated by treatment with 50 ng/mL IGF-I for 15 min. Cells were lylsed, and PI3K was immunoprecipitated from 500 μg of total cell extracts with 5 μL of rabbit antibody against full-length rat p85 PI3K (Upstate Biotechnology, Inc.), which coprecipitates the p110 catalytic subunit of PI3K, and 20 μL of protein A-sepharose beads (Amersham Pharmacia Biotech). PI3K activity in the immunoprecipitates was analyzed using bovine brain extract (Type I; Sigma-Aldrich), which contains a mixture of phosphatidylinositol, phosphatidylinositol 4-phosphate, and phosphatidylinositol 4,5-bisphosphate as a substrate, as described (Hsu et al., 2000). Jurkat cell lysates (Upstate Biotechnology, Inc.) and IGF-I-activated […] NSCLC cell lysates were used as positive controls.

COc1cc2c(cc1OC)[C@@H]1C(=O)c3ccc4c(c3O[C@@H]1CO2)C=CC(C)(C)O4 [deguelin, Deguelin]
effect on growth of NHBE cells (NHBE cells [1]): minimal effect | cell cycle distribution [2]: accumulated in the G2/M phase | apoptosis (TUNEL, DNA fragmentation) (NHBE cells [3]): neither a TUNEL-positive cell population nor fragmented DNA | IC50 [4]: < 0.01 µM | levels of pAkt and pGSK-3β (squamous HBE cells): decreased the levels of pAkt and pGSK-3β in a time-dependent manner | PARP cleavage (squamous HBE cells; 10^−9 M to 10^−7 M, 1 day): increased PARP cleavage | decrease in PI3K activity compared with untreated cells (PI3K in 1799 cells): approximately 55%
